Values quoted from earlier work as cited in patent publication US20100322880A1, “UVA FILTERS BASED ON ASCORBIC ACID DERIVATIVES” (Merck Patent GmbH, priority 2008, published 2010).

System: prolyl-4-hydroxylase
Details: for supporting the activity of the enzyme prolyl-4-hydroxylase: literature statement, no figures

## CC(=O)Oc1ccccc1C(=O)OC[C@H](OC(=O)c1ccccc1OC(C)=O)[C@H]1OC(=O)C(O)=C1O [O^5O^6-bis(2-acetoxybenzoyl) L-ascorbate]
Disubstituted compared with the monosubstituted compound
  affinity to the enzyme: lower affinity
  supporting the activity of the enzyme prolyl-4-hydroxylase: capable of supporting the activity

## CC(=O)Oc1ccccc1C(=O)OC[C@H](O)[C@H]1OC(=O)C(O)=C1O [O^6-(2-acetoxybenzoyl) L-ascorbate]
  supporting the activity of the enzyme prolyl-4-hydroxylase: capable of supporting the activity
